In series [1] the test system is human cervical carcinoma HeLa. The experiment in a line: MTT cytotoxicity assay, 48 h. The settings on record: Homo sapiens, HeLa; MTT, 48 h; read-out: IC50, µM Cervix HeLa. The format is cell-based. The protocol: (§1) On the first step of the biological evaluation of novel GA derivatives 3a-h, 4a-h, and 5a-h, we analyzed their cytotoxicity in a panel of cultured mammalian cells, including human cervical carcinoma HeLa and KB-3-1, human duodenal carcinoma HuTu-80, human lung adenocarcinoma A549, murine melanoma B16 cell lines, and nontransformed human fibroblasts hFF3. The cells were treated with derivatives for 48 h and cell viability was evaluated by 3-(4, 5-dimethylthiazol-2-yl)-2, 5-diphenyltetrazolium bromide (MTT) assay. Since the studied compounds contain two types of functional groups at position 3-acetoxy- or the hydroxyl-group, 3-acetoxy-GA 1 and GA-Me were used as references. Additionally, hierarchical clustering of cytotoxic data was carried out in order to reveal groups of compounds with similar cytotoxic profiles (Figure 2A).
(§2) Human cervical carcinoma HeLa and KB-3-1 cells, human duodenal carcinoma HuTu-80 cells, and human lung adenocarcinoma A549 cells were obtained from the Russian Culture Collection (Institute of Cytology, RAS, St. Petersburg, Russia). Melanoma B16-F10 (hereafter, melanoma B16) cells were obtained from the Cell Culture Bank of the Blokhin National Medical Oncology Research Center (Moscow, Russia). Nonmalignant fibroblasts hFF3 and RAW264.7 macrophages were kindly provided by Dr. Olga A. Koval (Institute of Chemical Biology and Fundamental Medicine, SB RAS, Novosibirsk, Russia) and Prof. Dmitry Kuprash (Engelhardt Institute of Molecular Biology, RAS, Moscow, Russia), respectively. The cells were cultured in DMEM (Sigma-Aldrich Inc., St. Louis, MO, USA) supplemented with 10% (v/v) heat-inactivated fetal bovine serum (FBS) (BioloT, St. Petersburg, Russia) and antibiotic–antimycotic solution (100 U/mL penicillin, 100 µg/mL streptomycin, 0.25 µg/mL amphotericin). […] The cells were incubated at 37 °C in a humidified 5% CO2-containing air atmosphere (hereafter referred to as standard conditions). GA derivatives were dissolved in DMSO (stock solutions: 10 mM) and stored at −20 °C prior to use.
(§3) Cells were seeded in tetra- or pentaplicates in 96-well plates at a density of 10^4 (tumor cells and […] fibroblasts) or 10^5 (RAW264.7 cells) cells per well. Cells were incubated under standard conditions for 24 h, followed by their treatment with the investigated derivatives (0.5–50 µM) or corresponding concentrations of DMSO (control) for a further 48 h (tumor cells and fibroblasts) or 24 h (RAW264.7 cells). At the end of incubation period, 10 µL of MTT solution was added to the cells (final concentration: 0.5 mg/mL) and plates were incubated for an additional 2 h under standard conditions. Then, the MTT-containing medium was aspirated and formazan crystals formed in living cells were solubilized with 100 µL of DMSO. The absorbance of each well was read at test and reference wavelengths of 570 and 620 nm, respectively, on a Multiscan RC plate reader (Thermo LabSystems, Helsinki, Finland). The IC50 values (the concentration of compounds leading to a decrease of A570 to 50% of A570^control) were calculated by extrapolation of the dose–response curves. […] A heatmap of SI values was constructed by Microsoft Excel 2010.
A general note: Tetrazolium dyes change colour on reduction, which living cells bring about.

The test system of series [2] is human cervical carcinoma KB-3-1. The experiment in a line: MTT cytotoxicity assay, 48 h. The format is cell-based. The settings on record: Homo sapiens, KB 3-1; MTT, 48 h; read-out: IC50, µM Cervix KB-3-1. The protocol:
as §1, §2, §3

Series [3] deals with human duodenal carcinoma HuTu-80. The experiment in a line: MTT cytotoxicity assay, 48 h. The format is cell-based. The settings on record: Homo sapiens, HuTu80; MTT, 48 h; read-out: IC50, µM Duodenum HuTu-80. The protocol:
as §1, §2, §3

The test system of series [4] is human lung adenocarcinoma A549. The experiment in a line: MTT cytotoxicity assay, 48 h. The series is classed as cell-based. The settings on record: Homo sapiens, A549; MTT, 48 h. Here is the method:
as §1, §2, §3

Another series concerns murine melanoma B16. Put plainly: MTT cytotoxicity assay, 48 h. The series is classed as cell-based. The following applies: Mus musculus; MTT, 48 h. The protocol: as §1, §2, §3
The subject of series [5] is nontransformed human fibroblasts hFF3. Put plainly: MTT cytotoxicity assay, 48 h. The following applies: Homo sapiens, HFF-3, read-out: IC50, µM Fibroblast hFF3. The series is classed as cell-based. Here is the method:
as §1, §2, §3

Series [6] relates to HeLa, KB-3-1, HuTu-80, A549, B16 and hFF3 cells. Put plainly: MTT cytotoxicity, summary over the panel of cell lines. The format is cell-based. The protocol: as §1, §3
Series [7] relates to murine RAW264.7 macrophages. The experiment in a line: MTT cytotoxicity assay, 24 h. The series is classed as cell-based. The following applies: up to 50 µM. Here is the method:
as §3

The subject of series [8] is TNFα production by IFN-γ-stimulated RAW264.7 cells. The experiment in a line: TNF-α production by IFNγ-stimulated macrophages (ELISA). The format is cell-based, murine. The following applies: 10–50 µM, 24 h, IFNγ (20 ng/mL). The protocol:
(§4) RAW264.7 cells were seeded in tetraplicates in 96-well plates at a density of 10^5 cells/well and incubated under standard conditions for 24 h. The cells were treated with murine IFNγ (20 ng/mL) (Gibco, Grand Island, NY, USA) with or without (control) 3d (10–50 µM) for a further 24 h. At the end of the incubation period, the levels of TNF-α and NO in culture medium were measured using murine TNF alpha ELISA (Thermo Scientific, Frederick, MD, USA) and the Griess reagent system (Promega, Madison, WI, USA), respectively, according to manufacturers’ instructions.

For series [9], the system named is NO synthesis by IFN-γ-induced RAW264.7 cells. Put plainly: NO production by IFNγ-stimulated macrophages (Griess). The format is cell-based, murine. The following applies: 10–50 µM, 24 h, IFNγ (20 ng/mL). The protocol:
as §4
In general terms: Nitrite, measured by Griess reagent, commonly stands in for NO production.

Series [10] has as its system carrageenan-induced paw edema. The experiment in a line: Carrageenan-induced paw edema. The format is in vivo, ICR mice. The following applies: for decrease of the weight of edema compared with vehicle-treated mice: gastric gavage 1 h before carrageenan, 5 h after induction, 3d 50 mg/kg, indomethacin 20 mg/kg. Here is the method: To induce paw edema, ICR mice were injected with 1% carrageenan (50 μL) on the plantar side of the right hind paw. […] Mice were sacrificed 5 h after induction of paw edema. The percent of edema weight in carrageenan-injected compound-treated groups in comparison to that in vehicle-treated control group was calculated according to the formula: % Edema=(M1−M2/M2)^compound/∑n(M1−M2/M2)^vehicle×n×100%, where M1 is the weight of the paw with carrageenan-induced edema; M2 is the weight of the intact paws; compound and vehicle correspond to the compound- and vehicle-treated phlogogen-injected mice, respectively; and n is the number of mice in the control group (n = 9). Furthermore, paw material was collected for subsequent histological analysis.
For histological analysis, the specimens of intact and edema paws from each animal were dehydrated in ascending ethanol and xylol and embedded in HistoMix paraffin (BioVitrum, Russia). Paraffin sections (5 μm) were sliced on a Microm HM 355S microtome (Thermo Fisher Scientific, Waltham, MA, USA) and stained with hematoxylin and eosin. Images were obtained using an Axiostar Plus microscope equipped with an Axiocam MRc5 digital camera (Zeiss, Oberkochen, Germany) at ×100 and ×400 magnifications.

The test system of series [11] is carrageenan-induced peritonitis. The experiment in a line: Carrageenan-induced peritonitis. The format is in vivo, ICR mice. The settings on record: i.p. 1 h before carrageenan, 4 h; for decrease of the total leukocyte number in peritoneal exudates: 3d 50 mg/kg, dexamethasone 1 mg/kg. The protocol:
To study the effect of 3d on carrageenan-induced peritonitis, ICR mice were injected with 1% carrageenan (250 μL) intraperitoneally (i.p.). Compound 3d (50 mg/kg), vehicle (10% Tween-80), dexamethasone (1 mg/kg) as a reference anti-inflammatory drug, and saline buffer were administered i.p. 1 h before peritonitis induction. The healthy uninflamed group (control) was injected i.p. by saline. Mice were sacrificed 4 h after carrageenan injection and their peritoneal cavities were washed with 2 mL of heparinized cold saline buffer to obtain peritoneal cells. The peritoneal exudates were collected and the total leukocyte counts were performed with a Neubauer chamber by optical microscopy after diluting the peritoneal fluid with Turk solution (1:20). To determine the differential leukocyte counts (total 100 cells), peritoneal cells were centrifuged and placed onto slides, stained with azur–eosin by Romanovsky–Giemsa and examined by optical microscopy. The results were expressed as the number of total leukocytes (×10^5 cells/mL) and the percentages of subpopulations of neutrophils, lymphocytes, and monocytes.

The structures appear in SMILES notation. Read-outs that look alike come from different tables or passages of the source.

As to `CC(=O)O[C@H]1CC[C@@]2(C)C(CC[C@]3(C)C2C(=O)C=C2[C@@H]4C[C@@](C)(C(=O)O/N=C(/N)C(C)(C)C)CC[C@]4(C)CC[C@]23C)C1(C)C` (some centres unmarked) [Compound 3d], the melting point was in the range of 151.6 to 152.3 °C. Moreover, in series [1], the IC50 was greater than 50 µM. Further, in series [2], the IC50 is greater than 50 µM. Besides, the IC50 in series [3] was greater than 50 µM. In series [4], this molecule came in with a half-maximal inhibitory concentration (IC50) greater than 50 µM. The same molecule yielded a half-maximal inhibitory concentration (IC50) in the series with murine melanoma B16 greater than 50 µM. In addition, the IC50 in series [5] is greater than 50 µM. Further, the “cytotoxicity in all tested cell lines” value in [6] (all tested cell lines) is “nontoxic”. In addition, in [6] (median over all tested cell lines, read-out: median IC50), the IC50 was greater than 50 µM. In addition, in series [6] (read-out: IC50 values with respect to all tested cell lines), the 50% inhibitory concentration (IC50) was greater than 50 µM. Moreover, the “cytotoxicity to RAW264.7 macrophages” value in series [7] was “did not reveal cytotoxicity”. Besides, the “suppression of TNFα production compared to the IFN-γ-stimulated control” value in [8] is 2.2–9.0 times. Moreover, the “inhibition of NO synthesis compared with the control” value in series [9] is “up to 5.3 times”. In [10] (50 mg/kg, gastric gavage), the histology of footpads result is “substantially reducing leukocyte infiltration in the dermis of the footpads”. Moreover, in series [10], the “decrease of the weight of edema compared with vehicle-treated mice” value amounted to 1.7 fold. In addition, in series [11], the “distribution of leukocyte subpopulations in peritoneal fluid” value is “restore leukocyte subtype content to a healthy level” and the “decrease of the total leukocyte number in peritoneal exudates” value is 2.7 fold.
For `C[C@@H]1C[C@H]2[C@@H]3CCC4=CC(=O)C=C[C@]4(C)[C@@]3(F)[C@@H](O)C[C@]2(C)[C@@]1(O)C(=O)CO` [dexamethasone, reference compound], in series [11], the “distribution of leukocyte subpopulations in peritoneal fluid” value was “did not affect the distribution of the leukocyte subpopulation” and the “decrease of the total leukocyte number in peritoneal exudates” value is on record as 1.8 fold.
With `COc1ccc2c(c1)c(CC(=O)O)c(C)n2C(=O)c1ccc(Cl)cc1` [indomethacin, reference compound], the “decrease of the weight of edema compared with vehicle-treated mice” value in series [10] is “three-fold”.

By IC50 is commonly meant the concentration that gives 50% inhibition. In general, melting point refers to the temperature of the solid-liquid transition.
